Test results reported in patent publication US20240423908A1, “Improved Nasal Administration of Parkinson's Therapeutics” (Cyrano Therapeutics, Inc., priority 2022, published 2024).

Assays:
Format in all cases: in vivo
Alzheimer's disease = test: Treatment of Alzheimer's disease with a nasal spray composition (Example 7); conditions: donepezil composition, nasal spray 3× daily in each naris
Source text: (§1) A subject is admitted to a clinic for confusion and inability to concentrate. The subject is diagnosed with Alzheimer's disease. The subject is prescribed a donepezil composition in a nasal spray device described herein. The subject administers the nasal spray in an effective dose 3× daily in each naris. The nasal spray is characterized by a spray containing a D50 of about 15 μm to about 24 μm, a D90 of from about 30 μm to about 50 μm, and where less than about 3% of the droplets in the plume of a spray have a size of less than about 10 μm.

Parkinson's disease = test: Treatment of Parkinson's disease with a nasal spray composition (Examples 4 and 6)
Source text: as §1, with “tremors” for “confusion”, “rigid muscles.” for “inability to concentrate.”, “Parkinson's” for “Alzheimer's”, “rolipram” for “donepezil”, “2×” for “3×”
as §1, with “bradykinesia” for “confusion”, “impaired balance.” for “inability to concentrate.”, “Parkinson's” for “Alzheimer's”, “levodopa” for “donepezil”, “4×” for “3×”

[1] = tested on: chemosensory dysfunction associated with Parkinson's disease; test: Treatment of Parkinson's disease chemosensory dysfunction with intranasal theophylline (Example 9); conditions: adult human male; about 0.4 ml per day of 3.1 mg/ml theophylline liquid composition, nasal spray twice daily in each naris; after 7 days
Method: An adult human subject was treated for chemosensory dysfunction associated with Parkinson's disease. […] The subject was administered about 0.4 ml per day of a liquid composition comprising theophylline at a concentration of 3.1 mg/ml in a nasal spray device described herein. The subject administered the nasal spray twice daily in each naris.

[2] = tested on: loss of taste associated with Parkinson's disease; test: Treatment of chemosensory dysfunction in a Parkinson's disease patient (Example 5); conditions: theophylline composition, nasal spray 2× daily in each naris
Source text: as §1, with “loss of taste associated with Parkinson's disease.” for “confusion and inability to concentrate.”, “chemosensory dysfunction.” for “Alzheimer's disease.”, “theophylline” for “donepezil”, “2×” for “3×”

Q: Which confusion and concentration (Alzheimer's disease) does the source give for `COc1cc2c(cc1OC)C(=O)C(CC1CCN(Cc3ccccc3)CC1)C2` (centres unmarked) [donepezil] here?
A: reduced confusion and improved concentration

Q: How did the “symptoms of Parkinson's disease” value (Parkinson's disease; rolipram composition, nasal spray 2× daily in each naris) turn out when `COc1ccc(C2CNC(=O)C2)cc1OC1CCCC1` (centres unmarked) [rolipram] was run?
A: reduced symptoms (e.g., reduced tremors and reduced muscle rigidity)

Q: `N[C@@H](Cc1ccc(O)c(O)c1)C(=O)O` [levodopa] was tested. Which bradykinesia and balance (Parkinson's disease; levodopa composition, nasal spray 4× daily in each naris) did it give?
A: reduced bradykinesia and improved balance

Q: With `Cn1c(=O)c2[nH]cnc2n(C)c1=O` [theophylline] as the molecule, how does the “ability to taste and smell” value [1] read?
A: regained their ability to taste and smell

Q: And the sense of taste [2]?
A: regains the sense of taste
